Experimental data published in US11730705B2, “Small molecule CMKLR1 antagonists in inflammatory disease” (The Board of Trustees of the Leland Stanford Junior …, priority 2019, dated 2023).
Values joined by “and” are separate entries in the source; they are usually repeats but may differ in a detail not shown here. Identical values can stand only once. Like-named read-outs stand apart in the source and are kept apart here.

How the values were obtained:
[1] = test system: C57/BL6 mice; test: α-NETA acute single dose toxicity (LD50); assay type: in vivo, mouse
Source text: FIG. 3. Acute single dose toxicity (LD50) of α-NETA. […] The remaining mice were monitored for 14 days. Graph depicts lethality at each dose, n=3 per mice/dose.

[2] = biological target: T1, hERG (Homo sapiens, UniProt Q12809); test: hERG inhibition patch-clamp assay, CHO-hERG cells; assay type: cell-based; conditions: hERG tail current, preliminary studies
T1 construct: host or cells: CHO
Experimental: Pregnane X receptor (PXR) activation was used as a marker of Cyp induction.
The cell was depolarized, and the hERG tail current was measured, and IC50 determined (Cyprotex/Evotec AG).

[3] = test system: EAE in C57BL/6 mice; test: EAE induced by MOG35-55/CFA immunization; assay type: in vivo, mouse; conditions: FIG. 1C; 10 mg/kg daily; compared with Tecfidera or vehicle control
Experimental: FIG. 1A-1D. […] (FIG. 1D) The integrated clinical score over time for each animal was calculated as area under the curve (AUC).
EAE. […] CFA consisted of 5 mg/ml mTB (Mycobacterium-tuberculosis H37 Ra, BD Difco) in IFA (Incomplete Freund's Adjuvant, Sigma). MOG35-55 was reconstituted at 2 mg/ml in PBS. Mice also received 200 ng pertussis toxin (List Biological Laboratories, Inc) by i.p. injection at the time of immunization and two days later. […] For a direct comparison to α-NETA, the DMF and compound doses were also 10 mg/kg in 10% captisol. Mice were monitored daily for clinical disease and scored (0=normal/healthy, 1=limp tail, 2=hindlimb weakness, 3=hindlimb paralysis, 4=hindlimb and forelimb paralysis, 5=moribund/dead).

[4] = biological target: T2, Cyp2D6 (Homo sapiens, UniProt P10635); conditions: PubChem BioAssay ID 1461; read-out: Cyp Inhibition IC50 (μM), Cyp2D6; cited from earlier work
T2 construct: tissue Cyprotex/Evotec AG; host or cells: human liver microsomes

[5] = biological target: Cyp1A2 (Homo sapiens, UniProt P05177); conditions: PubChem BioAssay ID 1476; read-out: Cyp Inhibition IC50 (μM), Cyp1A2; cited from earlier work
[6] = biological target: Cyp3A4 (Homo sapiens, UniProt P08684); test: Cyp enzyme inhibition, human liver microsomes; assay type: in vitro ADME; set-up: Human liver microsomes were pre-incubated with 7 concentrations; tissue Cyprotex/Evotec AG; host or cells: human liver microsomes
Experimental: Cyp enzyme inhibition. Human liver microsomes were pre-incubated with 7 concentrations ([…], duplicate wells) of α-NETA for 30 min.

[7] = 5 μg into the uterine horn on days 6, 9 and 12 following fertilization; cited from earlier work

Chain of Cyp3A4 (P08684 whole entry): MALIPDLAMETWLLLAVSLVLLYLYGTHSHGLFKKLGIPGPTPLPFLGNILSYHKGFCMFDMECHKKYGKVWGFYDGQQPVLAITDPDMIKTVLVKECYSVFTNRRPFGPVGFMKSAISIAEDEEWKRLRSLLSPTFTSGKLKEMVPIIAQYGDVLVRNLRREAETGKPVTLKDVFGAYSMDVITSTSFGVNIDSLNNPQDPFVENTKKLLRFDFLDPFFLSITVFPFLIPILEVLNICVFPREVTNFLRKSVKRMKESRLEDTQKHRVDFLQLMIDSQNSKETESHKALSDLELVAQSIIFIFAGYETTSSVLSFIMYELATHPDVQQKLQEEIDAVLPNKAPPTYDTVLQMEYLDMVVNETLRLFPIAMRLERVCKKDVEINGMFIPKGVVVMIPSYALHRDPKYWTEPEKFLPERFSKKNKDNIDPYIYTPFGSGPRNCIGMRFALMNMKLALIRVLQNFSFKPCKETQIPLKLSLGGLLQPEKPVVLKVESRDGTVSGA
T2 sequence (P10635 whole entry): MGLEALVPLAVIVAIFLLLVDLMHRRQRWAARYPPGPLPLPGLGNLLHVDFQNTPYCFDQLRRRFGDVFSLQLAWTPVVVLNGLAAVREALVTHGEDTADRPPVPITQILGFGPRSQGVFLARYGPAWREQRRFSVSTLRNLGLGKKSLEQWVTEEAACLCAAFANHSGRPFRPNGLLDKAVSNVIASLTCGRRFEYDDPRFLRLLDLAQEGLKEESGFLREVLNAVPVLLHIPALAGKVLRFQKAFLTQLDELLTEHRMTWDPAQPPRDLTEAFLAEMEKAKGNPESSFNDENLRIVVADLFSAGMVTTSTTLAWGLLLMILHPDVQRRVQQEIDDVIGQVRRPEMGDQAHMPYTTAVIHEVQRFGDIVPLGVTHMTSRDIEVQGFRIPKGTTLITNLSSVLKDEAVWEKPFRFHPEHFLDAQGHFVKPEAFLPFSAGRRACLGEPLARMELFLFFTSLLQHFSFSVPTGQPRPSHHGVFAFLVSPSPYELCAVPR
T1 sequence (Q12809 whole entry): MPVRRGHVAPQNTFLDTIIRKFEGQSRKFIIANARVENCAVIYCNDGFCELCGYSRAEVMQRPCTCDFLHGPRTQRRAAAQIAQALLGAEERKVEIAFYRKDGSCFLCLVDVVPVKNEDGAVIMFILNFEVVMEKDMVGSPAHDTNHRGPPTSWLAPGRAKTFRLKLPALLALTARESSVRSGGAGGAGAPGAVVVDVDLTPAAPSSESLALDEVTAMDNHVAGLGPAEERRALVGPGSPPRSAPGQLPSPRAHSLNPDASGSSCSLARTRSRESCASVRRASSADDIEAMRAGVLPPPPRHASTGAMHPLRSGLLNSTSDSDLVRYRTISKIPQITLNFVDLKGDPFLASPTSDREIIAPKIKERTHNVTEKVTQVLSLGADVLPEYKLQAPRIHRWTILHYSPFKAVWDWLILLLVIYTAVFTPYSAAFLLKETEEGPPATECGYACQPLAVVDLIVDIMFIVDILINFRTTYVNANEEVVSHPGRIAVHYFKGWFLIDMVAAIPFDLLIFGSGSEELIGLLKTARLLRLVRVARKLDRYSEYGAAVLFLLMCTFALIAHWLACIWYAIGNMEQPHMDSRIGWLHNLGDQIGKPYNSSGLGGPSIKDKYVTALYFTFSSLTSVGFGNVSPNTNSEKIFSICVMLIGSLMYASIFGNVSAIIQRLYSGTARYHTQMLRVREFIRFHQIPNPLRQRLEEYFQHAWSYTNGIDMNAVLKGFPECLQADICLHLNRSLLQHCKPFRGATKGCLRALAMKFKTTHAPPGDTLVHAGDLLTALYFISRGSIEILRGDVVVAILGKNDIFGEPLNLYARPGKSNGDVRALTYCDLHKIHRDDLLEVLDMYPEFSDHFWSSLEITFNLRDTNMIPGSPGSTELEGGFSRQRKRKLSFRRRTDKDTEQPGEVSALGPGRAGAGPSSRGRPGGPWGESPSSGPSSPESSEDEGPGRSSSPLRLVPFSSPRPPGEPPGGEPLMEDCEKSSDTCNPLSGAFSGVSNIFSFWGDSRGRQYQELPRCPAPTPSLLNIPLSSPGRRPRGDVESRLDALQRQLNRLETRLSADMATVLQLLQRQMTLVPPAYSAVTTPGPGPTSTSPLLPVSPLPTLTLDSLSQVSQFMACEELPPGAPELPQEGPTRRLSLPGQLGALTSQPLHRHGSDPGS
Chain of Cyp1A2 (P05177 whole entry): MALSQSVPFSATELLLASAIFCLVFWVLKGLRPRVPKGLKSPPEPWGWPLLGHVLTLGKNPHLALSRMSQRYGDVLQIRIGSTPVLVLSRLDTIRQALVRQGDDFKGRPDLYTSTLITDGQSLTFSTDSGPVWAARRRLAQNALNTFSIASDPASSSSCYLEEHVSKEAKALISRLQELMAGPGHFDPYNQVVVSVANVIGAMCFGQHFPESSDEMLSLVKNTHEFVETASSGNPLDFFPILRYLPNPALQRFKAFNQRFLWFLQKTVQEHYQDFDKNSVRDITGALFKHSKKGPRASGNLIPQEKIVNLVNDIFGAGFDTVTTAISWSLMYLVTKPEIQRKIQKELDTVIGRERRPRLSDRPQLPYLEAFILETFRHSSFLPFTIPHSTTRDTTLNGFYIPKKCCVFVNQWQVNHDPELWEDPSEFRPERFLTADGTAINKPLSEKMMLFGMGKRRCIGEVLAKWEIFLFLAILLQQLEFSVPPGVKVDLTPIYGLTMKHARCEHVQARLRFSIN

SMILES: C[N+](C)(C)CCC(=O)c1cccc2ccccc12.[I-] [α-NETA, 2-(α-naphthoyl) ethyltrimethylammonium iodide]
- calculated LD50, acute single dose ([1]; p.o., mice, 10% captisol): 873 mg/kg
- lethality ([1]; two highest doses (3000, 1000 mg/kg) by oral gavage): Lethal effects were observed within hours
- IC50 [2]: > 10 µM
- severity of clinical EAE [3]: significantly suppressed
- IC50 [4]: > 10 µM
- IC50 [5]: 8 µM
- IC50 ([6]; human liver microsomes, substrate Midazolam, read-out: Cyp Inhibition IC50 (μM), Cyp3A4): 7.4 µM and 7.5 µM
- IC50 ([6]; substrate testosterone, read-out: Cyp3A4 IC50): 6.9 µM
- embryo resorption [7]: significant embryo resorption
